How the values were obtained:
[1] = test system: psoriasis; assay: Treatment example: patient with psoriasis; type: in vivo, human; conditions: topical formulation
Description: A patient with psoriasis is treated with a topical formulation of N-(2-furylmethyl)-N-[(6-methoxy-2-oxo-1H-quinolin-3-yl)methyl]-4-methyl-benzamide (Compound I-1).

[2] = test system: lichen planus; assay: Treatment example: patient with lichen planus; type: in vivo, human; conditions: combination with crisaborole, both administered topically
Description: A patient with lichen planus is treated with a combination of N-(2-furylmethyl)-N-[(6-methoxy-2-oxo-1H-quinolin-3-yl)methyl]-4-methyl-benzamide (Compound I-1) and crisaborole, both administered topically.

[3] = test system: Il12b; assay: Dual-fluorescence reporter macrophage cell line screen, lipopolysaccharide-stimulated: chromatinized Il12b-eGFP versus minimal Il12b-DsRed reporter; type: cell-based; conditions: lipopolysaccharide-stimulated dual-fluorescence reporter macrophage cell line
Description: We hypothesized that molecules that inhibit the “chromatinized” Il12b reporter but not the “minimal” Il12b reporter would offer a greater degree of Il12b inhibition selectivity.
We generated a dual-fluorescence reporter macrophage cell line having both a [Il12b]-[eGFP] chromatin-based construct and a [Il12b]-[DSred] plasmid vector. FIG. 3. We then stimulated an […] response in the cell line using lipopolysaccharide, an activator of Il12b expression, and tested a library of over 60,000 known and unknown (i.e., undescribed in the literature) small-molecule compounds.
Additional compounds in Formulas (I)-(IV) were screened following the same procedure as described above, with eGFP fluorescence as a readout for inhibition of IL12b.

[4] = test system: Il12b; assay: RNA-Seq / ATAC-Seq of lipopolysaccharide-induced genes in treated macrophages; type: cell-based; conditions: for rank of Il12b among the most strongly inhibited lipopolysaccharide-induced genes: genes with RPKM>4 and FC>10, ranked by fold change (Max RPKM with/without compound)
Description: Our screening experiment identified as compounds that […]. Using ATAC-Seq and RNA-Seq analyses, we confirmed that the screen indeed identified hits that work by affecting chromatin, and confirmed that β adrenergic agonists, (and in particular β2 adrenergic agonists) are indeed exquisitely selective inhibitors of Il12b gene expression.
(§1) The inhibition of Il12b by β agonists occurs upon stimulation of macrophages with other inflammatory stimuli, including CpG DNA, double stranded RNA, and imiquimod. We confirmed that the cAMP/PKA pathway, but not the exchange factor directly activated by cAMP (EPAC) pathway, was largely responsible for mediating the Il12b suppression by 0-agonists.
FIG. 7B depicts a fold change box plot in samples treated with UK17 (3-fluoro-N′-[(5-nitro-2-thienyl)methylene]benzohydrazide (CID #6895129)), classifying lipopolysaccharide-induced genes by gene-regulation cluster as previously described in Tong A. et al., A Stringent Systems Approach Uncovers Gene-Specific Mechanisms Regulating Inflammation, Cell 165 165-179 (2016). Box plots indicate the distribution of fold change values for each cluster. Red lines are drawn at 1 and −1, indicating a 2-fold up or down-regulation of genes. Il12b is labeled in red.

[5] = test system: chronic eczema; assay: Treatment example: patient with chronic eczema; type: in vivo, human; conditions: topical formulation
[6] = test system: vitiligo; assay: Treatment example: patient with vitiligo; type: in vivo, human; conditions: topical formulation
Description: A patient with vitiligo is treated with a topical formulation of 11-(5-hydroxy-2-nitrobenzyl)-7,11-diazatricyclo[7.3.1.0˜2,7˜]trideca-2,4-dien-6-one (Compound III-1).

[7] = test system: alopecia; assay: Treatment example: patient with alopecia; type: in vivo, human; conditions: topical formulation also comprising apremilast
[8] = test system: Behçet's disease; assay: Treatment example: patient with Behçet's disease; type: in vivo, human; conditions: topical formulation
[9] = test system: imiquimod-induced psoriasiform dermatitis; assay: Imiquimod-induced psoriasiform dermatitis model, PASI clinical scoring; type: in vivo; conditions: WT mice, topical imiquimod, daily intraperitoneal injection, vs saline/PBS
Description: FIG. 16 depicts histology of WT mice or b1/b2 KO mice 5 days after topically applying imiquimod to their skin. Histology confirms greater thickening and scale of the skin in b1/b2 KO mice.
FIG. 19 depicts WT mice given intraperitoneal injection of the b2 selective adrenergic agonist clenbuterol or vehicle control (saline) daily in mice given topical imiquimod to induce psoriasiform dermatitis.
FIG. 20 depicts the PASI clinical scoring PBS-treated WT mice versus clenbuterol-treated WT mice.

[10] = test system: Il12b; assay: Il12b expression in human macrophages treated with PGE2 (RNA-Seq, RPKM vs DMSO); type: cell-based
Description: as §1
FIG. 10 depicts a heatmap of percent expression of RPKMs as a percent of the maximum RPKM within the DMSO sample for genes with RPKMs>3 and FC>10 in at least one DMSO timepoint. The heatmap represents that for the averaged samples for each gene between Donor 0 IL34 and Donor 0 MCSF. In the left heatmap, red indicates percent expression equal to or higher than 100%. DMSO and PGE2 samples are indicated as such for timepoints 0 hr, 1 hr, 2 hr, and 6 hr. […] Here, red represents a positive difference equal to or over 100%, indicating induction, and blue representing a negative difference equal to or less than −100%, indicating inhibition. (n=2).
FIG. 11 depicts log 2 of the fold change of RPKMS after PGE2-treatment and those after DMSO treatment are shown in this scatter plot for genes with RPKMs>3 and FC>10 in at least on DMSO timepoint and this graph represents the 6-hour timepoint. […]

COc1ccc2[nH]c(=O)c(CN(Cc3ccco3)C(=O)c3ccc(C)cc3)cc2c1 [Compound I-1, N-(2-furylmethyl)-N-[(6-methoxy-2-oxo-1H-quinolin-3-yl)methyl]-4-methyl-benzamide]
clinical outcome [1]: Resolution of symptoms
clinical outcome [2]: Resolution of symptoms

O=C(NN=Cc1ccc([N+](=O)[O-])s1)c1cccc(F)c1 [II-1, 3-fluoro-N′-[(5-nitro-2-thienyl)methylene]benzohydrazide]
selective inhibition of the chromatinized Il12b reporter (eGFP) but not the minimal reporter (DsRed) [3]: selective inhibitors of chromatinized Il12b
selective inhibition of the chromatinized Il12b reporter (eGFP) but not the minimal reporter (DsRed) ([3]; listed as UK17): selective for inhibition of chromatinized Il12b
rank of Il12b among the most strongly inhibited lipopolysaccharide-induced genes [4]: ≤ 20
clinical outcome [5]: Resolution of symptoms

O=c1cccc2n1CC1CC2CN(Cc2cc(O)ccc2[N+](=O)[O-])C1 (stereo not drawn) [III-1, 11-(5-hydroxy-2-nitrobenzyl)-7,11-diazatricyclo[7.3.1.0˜2,7˜]trideca-2,4-dien-6-one]
clinical outcome [6]: Resolution of vitiligo
selective inhibition of the chromatinized Il12b reporter (eGFP) but not the minimal reporter (DsRed) [3]: selective inhibitors of chromatinized Il12b

COc1ccc(Br)cc1/C=C/C(=O)c1ccc(OC)c(OC)c1 [IV-1, 3-(5-bromo-2-methoxyphenyl)-1-(3,4-dimethoxyphenyl)-2-propen-1-one]
clinical outcome [7]: Resolution of alopecia
selective inhibition of the chromatinized Il12b reporter (eGFP) but not the minimal reporter (DsRed) [3]: selective inhibitors of chromatinized Il12b
clinical outcome [8]: Resolution of disease
rank of Il12b among the most strongly inhibited lipopolysaccharide-induced genes [4]: ≤ 20

CC(C)(C)NCC(O)c1cc(Cl)c(N)c(Cl)c1 (stereo not drawn) [clenbuterol]
PASI clinical score [9]: reduction in score

CCCCC[C@H](O)/C=C/[C@H]1[C@H](O)CC(=O)[C@@H]1C/C=C\CCCC(=O)O [prostaglandin E2, reference compound]
selective inhibition of Il12b in human macrophages [10]: exquisitely selective inhibitor of Il12b
selective inhibition of Il12b gene expression ([4]; RNA-Seq and ATAC-Seq analyses, macrophages): selectively inhibit IL12b expression

From patent publication US20240366586A1, “METHODS AND AGENTS FOR MODULATING THE IMMUNE RESPONSE” (The Regents of the University of California, priority 2021, published 2024)
